Where “and” joins values, the source holds several entries; their conditions need not be identical. Equal values may be shown once.
Tested on: human malignant melanoma tumor cell line A-375
Assay: A-375 (B-raf V600E) nude mouse xenograft model
Format: in vivo, human (xenograft in nude mouse)
Details: 50 mg/kg i.v. 3 times per week
From the text: The human malignant melanoma cell line, A-375 (ATCC #CRL-1619), was obtained from the American Type Culture Collection (ATCC; Manassas, Va., USA). Growth of this tumor cell line is dependent upon the expression of an activated form of the B-RAF serine/threonine kinase carrying a V600E mutation (K. P. Hoeflich et al., Cancer Res. 66:999-1006, 2006; D. J. Panka et al., Cancer Res. 66:1611-1619, 2006). This is the most frequent genetic abnormality observed in melanoma (N. Dhomen and R. Marais, Curr. Opin. Genet. Dev. 17:31-39, 2007). The cells were cultured in growth media prepared with Dulbecco's Modified Eagle Medium (high glucose), 10% fetal bovine serum (FBS), 1% 100× Penicillin-Streptomycin, 1% 10× sodium pyruvate and 1% 10×MEM non-essential amino acids. FBS was obtained from ATCC and all other reagents were obtained from Invitrogen Corp. (Carlsbad, Calif., USA). […] The supernatant was aspirated and the cell pellet was resuspended in 10 mL of growth media and the cell number determined using a hemocytometer. […]
Tumors were then permitted to develop in vivo until the majority reached 90-160 mm^3 in tumor volume, which required 5-6 weeks following implantation. […] Tumor volumes (V) were calculated by caliper measurement of the width (W), length (L) and thickness (T) of tumors using the following formula: V=0.5236×(L×W×T). […]

## CC(C)c1cc(-c2nnc(O)n2-c2ccc3c(ccn3C)c2)c(O)cc1O [Compound 226, 3-(2,4-di-hydroxy-5-isopropyl-phenyl)-4-(1-methyl-indol-5-yl)-5-hydroxy-[1,2,4] triazole]
Day 60
  average bodyweight gain relative to the start of the study: 2.7% (+/−1.1 SEM) and 2.7% (+/1.1 SEM)
Nude mice, 8 doses, day 63
  % T/C value: 17%

Source: patent US20080004266A1, “Method for treating proliferative disorders associated with protooncogene products” (priority 2006, published 2008)
